Paper PMC12736120, “First-in-Human Phase I Clinical Trial of SLC-391, a Novel and Selective AXL Inhibitor, in Patients with Advanced Solid Tumours” (Pharmaceuticals, 2025)
Like-named read-outs stand apart in the source and are kept apart here.

Assay: Plasma pharmacokinetics, QD and BID cohorts (non-compartmental)
Format: in vivo, human
Conditions: for Cmin, Mean / Cmin, Median / AUC / AUC(0-t) / Cmax / Tmax: plasma; for AR Factor (accumulation ratio), AUC0–12 / AR Factor (accumulation ratio), AUC0–last / AR Factor (accumulation ratio), Cmax: C1D21 vs C1D1; for AUC / AUC(0-t) / Cmax / Tmax: human, oral
Method: PK parameters were calculated by standard non-compartmental methods for SLC-391. Due to the long half-life of SLC-391 compared to the dosing interval, it was not possible to calculate a number of PK parameters, including plasma half-life and rate of elimination. Accumulation was assessed from the mean accumulation ratio factor (AR factor) calculated as the repeated dose (C1D21) mean value/single dose (C1D1) mean value for the PK parameters Cmax, AUC0–12, and AUC0–last for each dose group.
During QD dosing, blood samples for determination of SLC-391 plasma concentrations were collected predose and at 0.5, 1, 2, 3, 4, 6, 8, and 24 h after SLC-391 administration on cycle 1 day 1 (C1D1) and cycle 1 day 21 (C1D21). During BID dosing, blood samples were collected predose and at 1, 2, 3, 4, 6, 8, and 12 h after the first daily dose (before the second daily dose). Where possible, further samples were then collected at 13, 14, 22, and 24 h after the initial dose (predose C1D2). Blood samples were also collected on C1D21 (steady state) predose and at 1, 2, 3, 4, 6, 8, and 12 h after the first daily dose (before the second daily dose). Where possible, further samples were then collected at 13, 14, 22, and 24 h after the initial C1D21 dose (predose C2D1). An additional blood sample was also taken, where possible, at the end of treatment (EOT) visit.
After collection, blood samples were centrifuged, and plasma was separated and stored at −80 °C. Plasma concentrations of SLC-391 were measured by a validated analytical method involving liquid–liquid extraction followed by high-performance liquid chromatography (HPLC)–mass/mass spectroscopy assay using a Water Quattro Premier tandem quadrupole mass spectroscopy with Waters MassLynx data acquisition and processing software. Plasma analysis was carried out by Microconstants (San Diego, CA, USA) in compliance with the US FDA GLP regulations. The calibration range of the assay was from 0.100 to 100 ng/mL. Quality control samples prepared at 4 different analyte concentrations were analysed with each batch of samples against a separately prepared calibration standard. PK parameters were collected following single (day 1) and repeat dose (day 21) administration. PK parameters were summarised with appropriate descriptive statistics where possible (e.g., mean, geometric mean, median, maximum, minimum, and coefficient of variation). Descriptive PK parameters were determined by standard non-compartmental methods based on the concentration–time data of each subject. The nominal time was used for descriptive statistics calculations, and the actual sample collection times were used in PK analyses. PK analyses were performed using validated Phoenix WinNonlin Professional 8.3 (Certara, L.P., St. Louis, MO, USA).

## Nc1ncc(-c2cnn(C3CCNCC3)c2)cc1-c1nnc(CC2CC2)o1 [SLC-391, 3-(5-[cyclopropylmethyl]-1,3,4-oxadiazol-2-yl)-5-(1-[piperidin-4-yl]-1H-pyrazol-4-yl)-pyridin-2-amine]
25 mg, QD, C1D21
  Cmin, Mean: 10.3 ng/mL
  Cmin, Median: 7.8 ng/mL
50 mg, QD, C1D21
  Cmin, Mean: 34.9 ng/mL
  Cmin, Median: 34.9 ng/mL
75 mg BID, C1D21, mean, n=3, plasma
  Cmin: 147.5 ng/mL
75 mg BID, C1D21, median, n=3, plasma
  Cmin: 128.0 ng/mL
75 mg BID
  AR Factor (accumulation ratio), AUC0–12: 3.2
  AR Factor (accumulation ratio), AUC0–last: 3.2
  AR Factor (accumulation ratio), Cmax: 2.4
100 mg, QD, C1D21
  Cmin, Mean: 151.8 ng/mL
  Cmin, Median: 151.8 ng/mL
110 mg BID, C1D21, mean, n=3, plasma
  Cmin: 145.6 ng/mL
110 mg BID, C1D21, median, n=3, plasma
  Cmin: 90.2 ng/mL
110 mg BID
  AR Factor (accumulation ratio), AUC0–12: 3.5
  AR Factor (accumulation ratio), AUC0–last: 3.7
  AR Factor (accumulation ratio), Cmax: 2.6
125 mg, QD, C1D21
  Cmin, Mean: 33.7 ng/mL
  Cmin, Median: 42.0 ng/mL
150 mg BID, C1D21, mean, n=6, plasma
  Cmin: 243.5 ng/mL
150 mg BID, C1D21, median, n=6, plasma
  Cmin: 242.5 ng/mL
150 mg BID
  AR Factor (accumulation ratio), AUC0–12: 4.4
  AR Factor (accumulation ratio), AUC0–last: 3.9
  AR Factor (accumulation ratio), Cmax: 2.2
150 mg, QD, C1D21
  Cmin, Mean: 102.8 ng/mL
  Cmin, Median: 89.9 ng/mL
200 mg BID, C1D21, mean, n=2, plasma
  Cmin: 471.5 ng/mL
200 mg BID, C1D21, median, n=2, plasma
  Cmin: 471.5 ng/mL
200 mg BID
  AR Factor (accumulation ratio), AUC0–12: 8.7
  AR Factor (accumulation ratio), AUC0–last: 8.0
  AR Factor (accumulation ratio), Cmax: 5.0
25 mg, QD, C1D1, read-out: AUC0–12, Mean
  AUC: 177 ng·h/mL
25 mg, QD, C1D1, read-out: AUC0–12, Median
  AUC: 211 ng·h/mL
25 mg, QD, C1D1, read-out: AUC0–last, Mean
  AUC(0-t): 270 ng·h/mL
25 mg, QD, C1D1, read-out: AUC0–last, Median
  AUC(0-t): 302 ng·h/mL
25 mg, QD, C1D1, read-out: Cmax, Mean
  Cmax: 32.5 ng/mL
25 mg, QD, C1D1, read-out: Cmax, Median
  Cmax: 39.6 ng/mL
25 mg, QD, C1D1, read-out: Tmax, Mean
  Tmax: 2 h
25 mg, QD, C1D1, read-out: Tmax, Median
  Tmax: 2 h
25 mg, QD, C1D21, read-out: AUC0–12, Mean
  AUC: 286 ng·h/mL
25 mg, QD, C1D21, read-out: AUC0–12, Median
  AUC: 232 ng·h/mL
25 mg, QD, C1D21, read-out: AUC0–last, Mean
  AUC(0-t): 461 ng·h/mL
25 mg, QD, C1D21, read-out: AUC0–last, Median
  AUC(0-t): 366 ng·h/mL
25 mg, QD, C1D21, read-out: Cmax, Mean
  Cmax: 41.9 ng/mL
25 mg, QD, C1D21, read-out: Cmax, Median
  Cmax: 41.2 ng/mL
25 mg, QD, C1D21, read-out: Tmax, Mean
  Tmax: 2.7 h
25 mg, QD, C1D21, read-out: Tmax, Median
  Tmax: 2.1 h
50 mg, QD, C1D1, read-out: AUC0–12, Mean
  AUC: 382 ng·h/mL
50 mg, QD, C1D1, read-out: AUC0–12, Median
  AUC: 413 ng·h/mL
50 mg, QD, C1D1, read-out: AUC0–last, Mean
  AUC(0-t): 594 ng·h/mL
50 mg, QD, C1D1, read-out: AUC0–last, Median
  AUC(0-t): 643 ng·h/mL
50 mg, QD, C1D1, read-out: Cmax, Mean
  Cmax: 72.9 ng/mL
50 mg, QD, C1D1, read-out: Cmax, Median
  Cmax: 65.8 ng/mL
50 mg, QD, C1D1, read-out: Tmax, Mean
  Tmax: 2 h
50 mg, QD, C1D1, read-out: Tmax, Median
  Tmax: 1 h
50 mg, QD, C1D21, read-out: AUC0–12, Mean
  AUC: 706 ng·h/mL
50 mg, QD, C1D21, read-out: AUC0–12, Median
  AUC: 706 ng·h/mL
50 mg, QD, C1D21, read-out: AUC0–last, Mean
  AUC(0-t): 1210 ng·h/mL
50 mg, QD, C1D21, read-out: AUC0–last, Median
  AUC(0-t): 1210 ng·h/mL
50 mg, QD, C1D21, read-out: Cmax, Mean
  Cmax: 99.2 ng/mL
50 mg, QD, C1D21, read-out: Cmax, Median
  Cmax: 99.2 ng/mL
50 mg, QD, C1D21, read-out: Tmax, Mean
  Tmax: 1.5 h
50 mg, QD, C1D21, read-out: Tmax, Median
  Tmax: 1.5 h
75 mg, 75 mg BID, C1D1, mean, n=3, plasma, read-out: AUC0–12
  AUC: 706 ng·h/mL
75 mg, 75 mg BID, C1D1, mean, n=3, plasma, read-out: AUC0–last
  AUC(0-t): 1390 ng·h/mL
75 mg, 75 mg BID, C1D1, mean, n=3, plasma, read-out: Cmax
  Cmax: 114 ng/mL
75 mg, 75 mg BID, C1D1, mean, n=3, plasma, read-out: Tmax
  Tmax: 9.4 h
75 mg, 75 mg BID, C1D1, median, n=3, plasma, read-out: AUC0–12
  AUC: 541 ng·h/mL
75 mg, 75 mg BID, C1D1, median, n=3, plasma, read-out: AUC0–last
  AUC(0-t): 1110 ng·h/mL
75 mg, 75 mg BID, C1D1, median, n=3, plasma, read-out: Cmax
  Cmax: 93.4 ng/mL
75 mg, 75 mg BID, C1D1, median, n=3, plasma, read-out: Tmax
  Tmax: 3 h
75 mg, 75 mg BID, C1D21, mean, n=3, plasma, read-out: AUC0–12
  AUC: 2290 ng·h/mL
75 mg, 75 mg BID, C1D21, mean, n=3, plasma, read-out: AUC0–last
  AUC(0-t): 4420 ng·h/mL
75 mg, 75 mg BID, C1D21, mean, n=3, plasma, read-out: Cmax
  Cmax: 267 ng/mL
75 mg, 75 mg BID, C1D21, mean, n=3, plasma, read-out: Tmax
  Tmax: 3 h
75 mg, 75 mg BID, C1D21, median, n=3, plasma, read-out: AUC0–12
  AUC: 2290 ng·h/mL
75 mg, 75 mg BID, C1D21, median, n=3, plasma, read-out: AUC0–last
  AUC(0-t): 4300 ng·h/mL
75 mg, 75 mg BID, C1D21, median, n=3, plasma, read-out: Cmax
  Cmax: 331 ng/mL
75 mg, 75 mg BID, C1D21, median, n=3, plasma, read-out: Tmax
  Tmax: 1.9 h
100 mg, QD, C1D1, n 1, read-out: AUC0–12, Mean
  AUC: 1350 ng·h/mL
100 mg, QD, C1D1, n 1, read-out: AUC0–12, Median
  AUC: 1350 ng·h/mL
100 mg, QD, C1D1, read-out: AUC0–last, Mean
  AUC(0-t): 875 ng·h/mL
100 mg, QD, C1D1, read-out: AUC0–last, Median
  AUC(0-t): 460 ng·h/mL
100 mg, QD, C1D1, read-out: Cmax, Mean
  Cmax: 141 ng/mL
100 mg, QD, C1D1, read-out: Cmax, Median
  Cmax: 112 ng/mL
100 mg, QD, C1D1, read-out: Tmax, Mean
  Tmax: 0.8 h
100 mg, QD, C1D1, read-out: Tmax, Median
  Tmax: 0.9 h
100 mg, QD, C1D21, read-out: AUC0–last, Mean
  AUC(0-t): 1800 ng·h/mL
100 mg, QD, C1D21, read-out: AUC0–last, Median
  AUC(0-t): 1800 ng·h/mL
100 mg, QD, C1D21, read-out: Cmax, Mean
  Cmax: 436 ng/mL
100 mg, QD, C1D21, read-out: Cmax, Median
  Cmax: 436 ng/mL
100 mg, QD, C1D21, read-out: Tmax, Mean
  Tmax: 1.9 h
100 mg, QD, C1D21, read-out: Tmax, Median
  Tmax: 1.9 h
110 mg, 110 mg BID, C1D1, mean, n=3, plasma, read-out: AUC0–12
  AUC: 639 ng·h/mL
110 mg, 110 mg BID, C1D1, mean, n=3, plasma, read-out: AUC0–last
  AUC(0-t): 1170 ng·h/mL
110 mg, 110 mg BID, C1D1, mean, n=3, plasma, read-out: Cmax
  Cmax: 95.2 ng/mL
110 mg, 110 mg BID, C1D1, mean, n=3, plasma, read-out: Tmax
  Tmax: 3 h
110 mg, 110 mg BID, C1D1, median, n=3, plasma, read-out: AUC0–12
  AUC: 593 ng·h/mL
110 mg, 110 mg BID, C1D1, median, n=3, plasma, read-out: AUC0–last
  AUC(0-t): 1130 ng·h/mL
